System: HepG2 cells
Assay: not given
Conditions: not given

Structure (SMILES)	SI (selectivity index)
COc1ccc2cc3[n+](cc2c1OCc1ccccc1)CCc1cc2c(cc1-3)OCO2 [16a, 9-O-benzylberberine chloride]	1.76

System: not listed separately
Assay: in vitro
Conditions: human, % of cell viability compared to control, 1. measurement, HepG2, 1 µM

Structure (SMILES)	viability at 1 µM
COc1ccc2cc3[n+](cc2c1OCc1ccccc1)CCc1cc2c(cc1-3)OCO2 [16a, 9-O-benzylberberine chloride]	93.4%

Same assay, conditions: human, % of cell viability compared to control, 1. measurement, HepG2, 5 µM

Structure (SMILES)	viability at 5 µM
COc1ccc2cc3[n+](cc2c1OCc1ccccc1)CCc1cc2c(cc1-3)OCO2 [16a, 9-O-benzylberberine chloride]	81.9%

Same assay, conditions: human, % of cell viability compared to control, 1. measurement, HepG2, 10 µM

Structure (SMILES)	viability at 10 µM
COc1ccc2cc3[n+](cc2c1OCc1ccccc1)CCc1cc2c(cc1-3)OCO2 [16a, 9-O-benzylberberine chloride]	68.9%

Same assay, conditions: human, % of cell viability compared to control, 1. measurement, HepG2, 20 µM

Structure (SMILES)	viability at 20 µM
COc1ccc2cc3[n+](cc2c1OCc1ccccc1)CCc1cc2c(cc1-3)OCO2 [16a, 9-O-benzylberberine chloride]	59.4%

Same assay, conditions: human, % of cell viability compared to control, 1. measurement, HepG2, 40 µM

Structure (SMILES)	viability at 40 µM
COc1ccc2cc3[n+](cc2c1OCc1ccccc1)CCc1cc2c(cc1-3)OCO2 [16a, 9-O-benzylberberine chloride]	56.2%

Same assay, conditions: human, % of cell viability compared to control, 1. measurement, HepG2, 60 µM

Structure (SMILES)	viability at 60 µM
COc1ccc2cc3[n+](cc2c1OCc1ccccc1)CCc1cc2c(cc1-3)OCO2 [16a, 9-O-benzylberberine chloride]	41.5%

Same assay, conditions: human, % of cell viability compared to control, 1. measurement, HepG2, 80 µM

Structure (SMILES)	viability at 80 µM
COc1ccc2cc3[n+](cc2c1OCc1ccccc1)CCc1cc2c(cc1-3)OCO2 [16a, 9-O-benzylberberine chloride]	20.2%

Same assay, conditions: human, % of cell viability compared to control, 1. measurement, HepG2, 100 µM

Structure (SMILES)	viability at 100 µM
COc1ccc2cc3[n+](cc2c1OCc1ccccc1)CCc1cc2c(cc1-3)OCO2 [16a, 9-O-benzylberberine chloride]	8.76%

Same assay, conditions: human, % of cell viability compared to control, 2. measurement, HepG2, 1 µM

Structure (SMILES)	viability at 1 µM
COc1ccc2cc3[n+](cc2c1OCc1ccccc1)CCc1cc2c(cc1-3)OCO2 [16a, 9-O-benzylberberine chloride]	87.9%

Same assay, conditions: human, % of cell viability compared to control, 2. measurement, HepG2, 5 µM

Structure (SMILES)	viability at 5 µM
COc1ccc2cc3[n+](cc2c1OCc1ccccc1)CCc1cc2c(cc1-3)OCO2 [16a, 9-O-benzylberberine chloride]	73%

Same assay, conditions: human, % of cell viability compared to control, 2. measurement, HepG2, 10 µM

Structure (SMILES)	viability at 10 µM
COc1ccc2cc3[n+](cc2c1OCc1ccccc1)CCc1cc2c(cc1-3)OCO2 [16a, 9-O-benzylberberine chloride]	59.2%

Same assay, conditions: human, % of cell viability compared to control, 2. measurement, HepG2, 25 µM

Structure (SMILES)	viability at 25 µM
COc1ccc2cc3[n+](cc2c1OCc1ccccc1)CCc1cc2c(cc1-3)OCO2 [16a, 9-O-benzylberberine chloride]	48.9%

Same assay, conditions: human, % of cell viability compared to control, 2. measurement, HepG2, 50 µM

Structure (SMILES)	viability at 50 µM
COc1ccc2cc3[n+](cc2c1OCc1ccccc1)CCc1cc2c(cc1-3)OCO2 [16a, 9-O-benzylberberine chloride]	42.1%

Same assay, conditions: human, % of cell viability compared to control, 2. measurement, HepG2, 75 µM

Structure (SMILES)	viability at 75 µM
COc1ccc2cc3[n+](cc2c1OCc1ccccc1)CCc1cc2c(cc1-3)OCO2 [16a, 9-O-benzylberberine chloride]	31.1%

Same assay, conditions: human, % of cell viability compared to control, 2. measurement, HepG2, 100 µM

Structure (SMILES)	viability at 100 µM
COc1ccc2cc3[n+](cc2c1OCc1ccccc1)CCc1cc2c(cc1-3)OCO2 [16a, 9-O-benzylberberine chloride]	16.6%

Same assay, conditions: human, % of cell viability compared to control, 3. measurement, HepG2, 1 µM

Structure (SMILES)	viability at 1 µM
COc1ccc2cc3[n+](cc2c1OCc1ccccc1)CCc1cc2c(cc1-3)OCO2 [16a, 9-O-benzylberberine chloride]	96.4%

Same assay, conditions: human, % of cell viability compared to control, 3. measurement, HepG2, 5 µM

Structure (SMILES)	viability at 5 µM
COc1ccc2cc3[n+](cc2c1OCc1ccccc1)CCc1cc2c(cc1-3)OCO2 [16a, 9-O-benzylberberine chloride]	76.4%

Same assay, conditions: human, % of cell viability compared to control, 3. measurement, HepG2, 10 µM

Structure (SMILES)	viability at 10 µM
COc1ccc2cc3[n+](cc2c1OCc1ccccc1)CCc1cc2c(cc1-3)OCO2 [16a, 9-O-benzylberberine chloride]	60.7%

Same assay, conditions: human, % of cell viability compared to control, 3. measurement, HepG2, 25 µM

Structure (SMILES)	viability at 25 µM
COc1ccc2cc3[n+](cc2c1OCc1ccccc1)CCc1cc2c(cc1-3)OCO2 [16a, 9-O-benzylberberine chloride]	50.3%

Same assay, conditions: human, % of cell viability compared to control, 3. measurement, HepG2, 50 µM

Structure (SMILES)	viability at 50 µM
COc1ccc2cc3[n+](cc2c1OCc1ccccc1)CCc1cc2c(cc1-3)OCO2 [16a, 9-O-benzylberberine chloride]	44.9%

Same assay, conditions: human, % of cell viability compared to control, 3. measurement, HepG2, 75 µM

Structure (SMILES)	viability at 75 µM
COc1ccc2cc3[n+](cc2c1OCc1ccccc1)CCc1cc2c(cc1-3)OCO2 [16a, 9-O-benzylberberine chloride]	29.6%

Same assay, conditions: human, % of cell viability compared to control, 3. measurement, HepG2, 100 µM

Structure (SMILES)	viability at 100 µM
COc1ccc2cc3[n+](cc2c1OCc1ccccc1)CCc1cc2c(cc1-3)OCO2 [16a, 9-O-benzylberberine chloride]	15.3%

System: Mycobacterium kansasii DSM 44162 (ATCC 12478)
Assay: Antimycobacterial microdilution broth assay (resazurin), M. kansasii
Format: cell-based
Conditions: Mycobacterium kansasii, 96 h, read-out: MIC M. kansasii, microdilution broth, resazurin, 96 h

Structure (SMILES)	MIC
COc1ccc2cc3[n+](cc2c1OCc1ccccc1)CCc1cc2c(cc1-3)OCO2 [16a, 9-O-benzylberberine chloride]	6.25 µg/mL

System: Mtb H37Ra ITM-M006710 (ATCC 9431)
Assay: Antimycobacterial microdilution broth assay (resazurin), Mtb H37Ra
Format: cell-based, Mycobacterium tuberculosis
Conditions: Mycobacterium tuberculosis, 120 h, microdilution broth, resazurin, 120 h; read-out: MIC Mtb H37Ra

Structure (SMILES)	MIC
COc1ccc2cc3[n+](cc2c1OCc1ccccc1)CCc1cc2c(cc1-3)OCO2 [16a, 9-O-benzylberberine chloride]	6.25 µg/mL

Same assay, conditions: Mycobacterium tuberculosis, calculated from MIC (µg/mL) and MW; read-out: MIC Mtb H37Ra

Structure (SMILES)	MIC
COc1ccc2cc3[n+](cc2c1OCc1ccccc1)CCc1cc2c(cc1-3)OCO2 [16a, 9-O-benzylberberine chloride]	13.9 µM

System: Mycolicibacterium aurum DSM 43999 (ATCC 23366)
Assay: Antimycobacterial microdilution broth assay (resazurin), M. aurum
Format: cell-based
Conditions: Mycolicibacterium aurum, 72 h, read-out: MIC M. aurum, microdilution broth, resazurin, 72 h

Structure (SMILES)	MIC
COc1ccc2cc3[n+](cc2c1OCc1ccccc1)CCc1cc2c(cc1-3)OCO2 [16a, 9-O-benzylberberine chloride]	3.12 µg/mL

System: Mycobacterium avium DSM 44156 (ATCC 25291)
Assay: Antimycobacterial microdilution broth assay (resazurin), M. avium
Format: cell-based
Conditions: Mycobacterium avium, 96 h, read-out: MIC M. avium, microdilution broth, resazurin, 96 h

Structure (SMILES)	MIC
COc1ccc2cc3[n+](cc2c1OCc1ccccc1)CCc1cc2c(cc1-3)OCO2 [16a, 9-O-benzylberberine chloride]	3.12 µg/mL

System: Mycolicibacterium smegmatis DSM 43465 (ATCC 607)
Assay: Antimycobacterial microdilution broth assay (resazurin), M. smegmatis
Format: cell-based
Conditions: Mycolicibacterium smegmatis, 48 h, read-out: MIC M. smegmatis, microdilution broth, resazurin, 48 h

Structure (SMILES)	MIC
COc1ccc2cc3[n+](cc2c1OCc1ccccc1)CCc1cc2c(cc1-3)OCO2 [16a, 9-O-benzylberberine chloride]	0.78 µg/mL

System: HepG2 cells
Assay: cells
Conditions: Homo sapiens, HepG2, 24 h, read-out: HepG2 IC50, 1. measurement, MTT, 24 h, single measurement 1

Structure (SMILES)	IC50
COc1ccc2cc3[n+](cc2c1OCc1ccccc1)CCc1cc2c(cc1-3)OCO2 [16a, 9-O-benzylberberine chloride]	29.1 µM

Same assay, conditions: Homo sapiens, HepG2, 24 h, read-out: HepG2 IC50, 2. measurement, MTT, 24 h, single measurement 2

Structure (SMILES)	IC50
COc1ccc2cc3[n+](cc2c1OCc1ccccc1)CCc1cc2c(cc1-3)OCO2 [16a, 9-O-benzylberberine chloride]	20.8 µM

Same assay, conditions: Homo sapiens, HepG2, 24 h, read-out: HepG2 IC50, 3. measurement, MTT, 24 h, single measurement 3

Structure (SMILES)	IC50
COc1ccc2cc3[n+](cc2c1OCc1ccccc1)CCc1cc2c(cc1-3)OCO2 [16a, 9-O-benzylberberine chloride]	23.5 µM

Same assay, conditions: Homo sapiens, HepG2, 24 h, read-out: HepG2 IC50, MTT, 24 h incubation

Structure (SMILES)	IC50
COc1ccc2cc3[n+](cc2c1OCc1ccccc1)CCc1cc2c(cc1-3)OCO2 [16a, 9-O-benzylberberine chloride]	24.5 ± 4.25 µM

From publication PMC9221290, “Alkaloids of Dicranostigma franchetianum (Papaveraceae) and Berberine Derivatives as a New Class of Antimycobacterial Agents” (Biomolecules, 2022)
